Results from patent publication US20190255042A1, “APPLICATION OF HEDGEHOG PATHWAY INHIBITOR IN TREATING FIBROSIS DISEASES” (IMPACT THERAPEUTICS, INC, priority 2016, published 2019).

Tested on: lung fibrosis model in mice induced by bleomycin
Assay: Therapeutic efficacy in lung fibrosis model in mice induced by bleomycin
Assay type: in vivo, C57BL/6 mice
Details: for Percentage of positive α-SMA (%): lung tissue immunohistochemical staining; for Percentage of positive α-SMA (%) / Inflammatory infiltration area / Total lung tissue area / Percentage of inflammatory area (%): n = 10, Mean ± Sem; for Percentage of inflammatory area (%): #<0.05 vs. BLM model group; for inflammatory infiltration area compared with model group: p<0.05
Experimental: Experimental Methods: 60 male C57BL/6 mice were randomize into 6 groups: Blank control group (Group 1, n=10), model group (Group 2, BLM, n=10), Compound A 10 mpk group (Group 3, n=10), compound A 20 mpk group (Group 4, n=10), Compound A 20 mpk +BIBF1120 50 mpk (Group 5, n=10), and BIBF1120 50 mpk positive reference group (Group 6, n=10). One week after the mice were acclimated to the environment, 10 mice in the blank control group were given 50 μl of normal saline in the trachea, and other 50 mice were given 50 μl BLM (0.66 mg/kg, 2 ml/kg) in the trachea. After BLM infusion, 50 mice in BLM infusion group were randomly assigned to start treatment on the 5th day, once a day, with a treatment cycle of 20 days. The whole process was 25 days. After the experiment, the lung tissues were fixed in 10% neutral formalin, dehydrated by alcohol gradient, embedded with paraffin, stained by hematoxylin-eosin (H&E) and Masson trichrome staining. And the inflammatory area and degree of fibrosis of the lung tissues in mice were evaluated by APERIO ScanScope. Immunohistochemical staining of lung tissue was performed to quantify α-SMA positive fibroblasts in lung tissue and to calculate the percentage (%) of α-SMA staining in the entire lung stroma.

For CC(C)c1cnc(-c2cc(NC(=O)c3ccc(N4C[C@@H](C)N(C)[C@@H](C)C4)cc3C(F)(F)F)ccc2Cl)[nH]1 [Comp A, N-(3-(5-isopropyl-1H-imidazol-2-yl)-4-chlorophenyl)-2-trifluoromethyl-4-((3S,5R)-3,4,5-trimethylpiperazin-1-yl)benzamide], the “Percentage of positive α-SMA (%)” value (10 mpk oral D5 to D25) was 0.78 ± 0.11%, the Inflammatory infiltration area (10 mpk oral D5 to D25) was 8.80 ± 2.79 mm^2 and the “Total lung tissue area” value (10 mpk oral D5 to D25) was 100.20 ± 3.61 mm^2. The “Percentage of inflammatory area (%)” value (10 mpk oral D5 to D25) was 9.42 ± 3.35^# %, the “modified pathological Ashcroft score of pulmonary fibrosis injury compared with model group” value (10 mpk, p<0.01) was “significantly decreased” and the “inflammatory infiltration area compared with model group” value (10 mpk) was “significantly decreased”. For the same compound, the “Percentage of positive α-SMA (%)” value (20 mpk oral D5 to D25, ##p < 0.01 vs. Model group) was 0.64 ± 0.12^## %, the Inflammatory infiltration area (20 mpk oral D5 to D25) was 7.85 ± 2.28 mm^2 and the “Total lung tissue area” value (20 mpk oral D5 to D25) was 96.41 ± 3.28 mm^2. For the same compound, the “Percentage of inflammatory area (%)” value (20 mpk oral D5 to D25) was 8.23 ± 2.40^# %, the “immunohistochemical staining of α-SMA compared with model group” value (20 mpk, p<0.01) was “significantly decreased” and the “modified pathological Ashcroft score of pulmonary fibrosis injury compared with model group” value (20 mpk, p<0.01) was “significantly decreased”. For the same compound, the “inflammatory infiltration area compared with model group” value (20 mpk) was “significantly decreased”.
